# Laboratory results published in patent US8055452B2, “Identification, monitoring and treatment of disease and characterization of biological condition using gene expression profiles” (Life Technologies Corporation, priority 2001, dated 2011).
# System: Inflammation 48A and 48B loci; bacterial Gene Expression Panel of 24 genes
# Assay: Whole blood gene expression response to infectious agents or their products
# Type: cell-based
# Settings: E. coli filtrate with added polymyxin B vs filtrate alone
# Source text: FIGS. 27 through 41 illustrate the use of gene expression panels in early identification and monitoring of infectious disease. These figures plot the response, in expression products of the genes indicated, in whole blood, to the administration of various infectious agents or products associated with infectious agents. In each figure, the gene expression levels are “calibrated”, as that term is defined herein, in relation to baseline expression levels determined with respect to the whole blood prior to administration of the relevant infectious agent. […] The concentration change is shown ratiometrically, and the baseline level of 1 for a particular gene locus corresponds to an expression level for such locus that is the same, monitored at the relevant time after addition of the infectious agent or other stimulus, as the expression level before addition of the stimulus. […]
# FIG. 27 uses a novel bacterial Gene Expression Panel of 24 genes, developed to discriminate various bacterial conditions in a host biological system. […] The final concentration immediately after administration of the stimulus was 100 ng/mL, and the ratiometric changes in expression, in relation to pre-administration levels, were monitored for each stimulus 2 and 6 hours after administration. […]
# The responses were monitored at 2, 6, and 24 hours after administration. […]
substance,measurement,value
polymyxin B,effect on the response of IL1B locus to E. coli filtrate,did not affect the response
